In ChEMBL document CHEMBL3885861, “Open TG-GATES”:

Species: Rattus norvegicus
Experiment: Open TG-GATES - Regimen: Single
Assay type: toxicity, organism-based, Sprague-Dawley
Parameters: regimen Single, gender Male, age 6 weeks
Settings: in vivo, po, 600 mg/kg, route gavage, dose level High; for ALP / ALT / AST / BUN / CRE / Ca / Cl / DBIL / GLC / IP / K / LDH / Na / PL / RALB / TBIL / TC / TG / TP / gamma-GTP / A/G: tissue Plasma; for APTT / Bas / Eos / Fbg / Hb / Ht / Lym / MCH / MCHC / MCV / Mono / Neu / PT / Plat / RBC / Ret / WBC: tissue Blood; for KIDNEY_L / KIDNEY_R / KIDNEY_TOTAL: tissue Kidney; for LIVER: tissue Liver

SMILES: O=C1CN(/N=C/c2ccc([N+](=O)[O-])o2)C(=O)N1 [NITROFURANTOIN]
- ALP (3 h): 1226.6 IU/L
- ALT (3 h): 36 IU/L
- AST (3 h): 64.4 IU/L
- BUN (3 h): 12 mg/dL
- CRE (3 h): 0.5 mg/dL
- Ca (3 h): 11.6 mg/dL
- Cl (3 h): 104 meq/L
- DBIL (3 h): 0 mg/dL
- GLC (3 h): 198.4 mg/dL
- IP (3 h): 10.1 mg/dL
- K (3 h): 4 meq/L
- LDH (3 h): 91.2 IU/L
- Na (3 h): 139.6 meq/L
- PL (3 h): 146 mg/dL
- RALB (3 h): 4.1 g/dL
- TBIL (3 h): 0.034 mg/dL
- TC (3 h): 90.8 mg/dL
- TG (3 h): 54.8 mg/dL
- TP (3 h): 5.9 g/dL
- gamma-GTP (3 h): 1 IU/L
- TERMINAL_BW (6 h): 204.9 g
- APTT (6 h): 16 s
- Bas (6 h): 0%
- Eos (6 h): 1%
- Fbg (6 h): 228.8 mg/dL
- Hb (6 h): 13.7 g/dL
- Ht (6 h): 41.9%
- Lym (6 h): 74.8%
- MCH (6 h): 20.9 pg
- MCHC (6 h): 32.8%
- MCV (6 h): 63.9 fL
- Mono (6 h): 5.8%
- Neu (6 h): 18.6%
- PT (6 h): 11.8 s
- Plat (6 h): 115.3 x10_4/uL
- RBC (6 h): 656.6 x10_4/ul
- Ret (6 h): 7.9%
- WBC (6 h): 63.6 x10_2/uL
- KIDNEY_L (6 h): 0.9 g
- KIDNEY_R (6 h): 0.9 g
- KIDNEY_TOTAL (6 h): 1.9 g
- LIVER (6 h): 8.7 g
- A/G (6 h): 2.4
- ALP (6 h): 1281.4 IU/L
- ALT (6 h): 34.6 IU/L
- AST (6 h): 64.4 IU/L
- BUN (6 h): 12.6 mg/dL
- CRE (6 h): 0.5 mg/dL
- Ca (6 h): 11.5 mg/dL
- Cl (6 h): 104.2 meq/L
- DBIL (6 h): 0.008 mg/dL
- GLC (6 h): 193 mg/dL
- IP (6 h): 9 mg/dL
- K (6 h): 4.3 meq/L
- LDH (6 h): 74.4 IU/L
- Na (6 h): 137.8 meq/L
- PL (6 h): 144.2 mg/dL
- RALB (6 h): 4.1 g/dL
- TBIL (6 h): 0.04 mg/dL
- TC (6 h): 99.6 mg/dL
- TG (6 h): 33 mg/dL
- TP (6 h): 5.8 g/dL
- gamma-GTP (6 h): 0 IU/L
- TERMINAL_BW (9 h): 205.1 g
- APTT (9 h): 16.6 s
- Bas (9 h): 0%
- Eos (9 h): 1%
- Fbg (9 h): 229 mg/dL
- Hb (9 h): 13.5 g/dL
- Ht (9 h): 41.1%
- Lym (9 h): 71.4%
- MCH (9 h): 21.2 pg
- MCHC (9 h): 32.9%
- MCV (9 h): 64.6 fL
- Mono (9 h): 8%
- Neu (9 h): 19.8%
- PT (9 h): 11.7 s
- Plat (9 h): 127.2 x10_4/uL
- RBC (9 h): 636.6 x10_4/ul
- Ret (9 h): 7.2%
- WBC (9 h): 77 x10_2/uL
- KIDNEY_L (9 h): 1 g
- KIDNEY_R (9 h): 0.9 g
- KIDNEY_TOTAL (9 h): 1.9 g
- LIVER (9 h): 8.9 g
- A/G (9 h): 2.3
- ALP (9 h): 1100.8 IU/L
- ALT (9 h): 28.6 IU/L
- AST (9 h): 59.4 IU/L
- BUN (9 h): 12.6 mg/dL
- CRE (9 h): 0.4 mg/dL
- Ca (9 h): 11.3 mg/dL
- Cl (9 h): 104.2 meq/L
- DBIL (9 h): 0.01 mg/dL
- GLC (9 h): 194 mg/dL
- IP (9 h): 9.2 mg/dL
- K (9 h): 4.4 meq/L
- LDH (9 h): 82.6 IU/L
- Na (9 h): 137.4 meq/L
- PL (9 h): 160.4 mg/dL
- RALB (9 h): 4.1 g/dL
- TBIL (9 h): 0.042 mg/dL
- TC (9 h): 104.4 mg/dL
- TG (9 h): 46 mg/dL
- TP (9 h): 5.9 g/dL
- gamma-GTP (9 h): 1 IU/L
- TERMINAL_BW (24 h): 201.7 g
- APTT (24 h): 16.3 s
- Bas (24 h): 0%
- Eos (24 h): 1.6%
- Fbg (24 h): 238 mg/dL
- Hb (24 h): 13.7 g/dL
- Ht (24 h): 41.6%
- Lym (24 h): 78.8%
- MCH (24 h): 21.2 pg
- MCHC (24 h): 33%
- MCV (24 h): 64.4 fL
- Mono (24 h): 8.2%
- Neu (24 h): 11.8%
- PT (24 h): 11.8 s
- Plat (24 h): 131.1 x10_4/uL
- RBC (24 h): 647 x10_4/ul
- Ret (24 h): 6.5%
- WBC (24 h): 54.6 x10_2/uL
- KIDNEY_L (24 h): 1 g
- KIDNEY_R (24 h): 1 g
- KIDNEY_TOTAL (24 h): 1.9 g
- LIVER (24 h): 8.3 g
- A/G (24 h): 2.2
- ALP (24 h): 1073.2 IU/L
- ALT (24 h): 21.4 IU/L
- AST (24 h): 54.8 IU/L
- BUN (24 h): 11.4 mg/dL
- CRE (24 h): 0.5 mg/dL
- Ca (24 h): 11.4 mg/dL
- Cl (24 h): 108 meq/L
- DBIL (24 h): 0.01 mg/dL
- GLC (24 h): 170.2 mg/dL
- IP (24 h): 8.9 mg/dL
- K (24 h): 4.1 meq/L
- LDH (24 h): 91.2 IU/L
- Na (24 h): 140.2 meq/L
- PL (24 h): 138.4 mg/dL
- RALB (24 h): 4 g/dL
- TBIL (24 h): 0.04 mg/dL
- TC (24 h): 95.6 mg/dL
- TG (24 h): 42.6 mg/dL
- TP (24 h): 5.9 g/dL
- gamma-GTP (24 h): 0 IU/L
